Data: US6201006A, “Aromatic amidine derivatives useful as selective thrombin inhibitors” (C & C Research Laboratories, priority 1996, dated 2001)

Tests used:
[1] = tested on: thrombin time (TT) in rat plasma; experiment: Thrombin time (TT) in rat plasma after oral administration; assay type: in vivo, SD male rats; conditions: 100 mg/kg oral; TT after / TT before administration
Protocol: SD male rats weighing 220±20 g which had fasted overnight were used as experimental animals. Blood taken from the hearts of the experimental animals just before administration of the test compound and at 30, 60, 120 and 240 minutes after oral administration of the test compound was mixed with 0.108M sodium citrate in the ratio of 9:1. The mixtures thereby obtained were centrifuged at 15,000 rpm for 5 minutes at 4° C. to separate the plasma, which was stored at -20° C. until the TT was measured by means of the method described below.
200 μl of Owren's buffer was added to 50 μl of the plasma and 100 μl of the diluted plasma thereby obtained was injected into the vial of a coagulometer and then incubated for 2 minutes at 37° C. To each vial was added 100 μl of thrombin at a concentration of 20 U/ml, which had prewarmed at 37° C., to measure the time (TT) until clotting occurred. The ratio of the TT in rat plasma after administration of the test compound to the TT in rat plasma before administration of the test compound was calculated.

trypsin = experiment: Inhibitory activity for trypsin; assay type: biochemical
human thrombin = molecular target: T1, human thrombin (Homo sapiens, UniProt P00734); experiment: Inhibitory activity for thrombin (chromogenic substrate hydrolysis, 405 nm); assay type: biochemical
T1 construct: purchased Sigma T-6759
How it was run: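 Thrombin: human enzyme (5 units/ml stock, 0.1% BSA) acted for 20 min on N-benzoyl-Phe-Val-Arg-p-nitroanilide in 125 mM NaCl, 50 mM Tris-HCl pH 8.0, with compounds dissolved in 50% methanol. Hydrolysis was read at 405 nm. Selectivity index was trypsin IC50 divided by thrombin IC50.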

With CCn1c(CC[C@@H]2CCCN2C(=O)[C@H]2CCCN2C(C)=O)cc2ccc(C(=N)N)cc21 [Compound 171, 1-ethyl-2-[2-[(S)-1-[((R)-1-acetyl-pyrrolidin-2-yl)carbonyl]pyrrolidin-2-yl]ethyl]indole-6-carboxamidine] the “Plasma TT ratio after administration to rat” value [1] was 4.23, the IC50 (trypsin) was 373 nM and the “Selectivity (trypsin/thrombin)” value (human thrombin; IC50 for trypsin divided by IC50 for thrombin) was 35.1. For the same molecule, the IC50 (human thrombin; human thrombin, 20 min, pH 8.0, N-benzoyl-Phe-Val-Arg-p-nitroanilide) was 10.6 nM.
